2 molecules from BindingDB's records for doi:10.1016/j.bmc.2012.01.011 (Korea Research Institute of Bioscience and Biotechnology, 2012) can be followed below.

The target in the test is Neuraminidase (Influenza A virus (strain A/Brevig Mission/1/1918 H1N1), UniProt Q9IGQ6). Kind of test: Inhibition of recombinant influenza A virus H1N1 A/Bervig_Mission/1/18 sialidase activity using 4-methylumbelliferyl-alpha-D-N-acetylneuraminic acid sodium salt hydrate as substrate by fluorimetric analysis.

Usually IC50 stands for the point on the concentration scale where inhibition reaches its midpoint.

Neuraminidase, sequence (Q9IGQ6 whole entry): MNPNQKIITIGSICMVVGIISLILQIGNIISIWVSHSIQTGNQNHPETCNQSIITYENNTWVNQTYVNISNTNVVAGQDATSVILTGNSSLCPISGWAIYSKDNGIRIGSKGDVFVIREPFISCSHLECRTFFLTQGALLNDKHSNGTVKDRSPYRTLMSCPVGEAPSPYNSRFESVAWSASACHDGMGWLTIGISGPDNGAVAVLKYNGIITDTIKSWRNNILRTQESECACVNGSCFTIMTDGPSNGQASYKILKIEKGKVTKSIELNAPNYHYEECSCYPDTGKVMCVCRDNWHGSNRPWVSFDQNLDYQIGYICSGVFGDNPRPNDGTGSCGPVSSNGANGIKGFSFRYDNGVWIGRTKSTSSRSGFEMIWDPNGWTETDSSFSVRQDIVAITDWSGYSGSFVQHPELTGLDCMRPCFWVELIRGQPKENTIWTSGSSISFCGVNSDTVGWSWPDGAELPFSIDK

`CC(C)=CC=C(OC(=O)C(C)C)c1cc(O)c2c(O)ccc(O)c2c1O`: the IC50 came out at 40.5 µM. The value for `CC(C)=CC=C(OC(=O)CC(C)(C)O)c1cc(O)c2c(O)ccc(O)c2c1O` [(R)-1-(5,8-dihydroxy-1,4-dioxo-1,4-dihydronaphthalen-2-yl)-4-methylpent-3-enyl 3-hydroxy-3-methylbutanoate] was 40.5 µM.
